Values of other authors as cited in patent publication EP4066850A2, “PEPTIDES AND METHODS OF TREATING DYSTROPHY-RELATED DISORDERS USING THE SAME” (Bioincept LLC, priority 2017, dated 2018).

Details: IV infusion together with radiation; xerostomia treatment (Kouvaria et al 2007)

SMILES: NCCCNCCSP(=O)(O)O [Amifostine]
- side effects: serious side effects including fatal skin reaction
